The structures appear in SMILES notation.

The subject of this experiment is T1, NAD^+-farnesal dehydrogenase (P. minus farnesal dehydrogenase).
T1 construct: native enzyme purified from leaves, untagged
Put plainly: NADH formation at […] nm, Lineweaver-Burk. The format is biochemical, Persicaria minor. As to conditions: 100 mM glycine-NaOH pH 9.5, 35°C.

The Km is the concentration of substrate that gives half-maximal velocity. Turning to `CC(C)=CCCC(C)=CC=O` (mixture of isomers) [Citral, 3,7-dimethyl-2,6-octadienal], the Km (1.0 mM NAD+, substrate is a mixture of geranial and neral) turned out to be 690 µM.
Take `CC(C)=CCC/C(C)=C/CC/C(C)=C/C=O` (mixture of isomers) [Farnesal, 3,7,11-trimethyl-2,6,10-dodecatrienal]: the Km (1.0 mM NAD+, substrate is a mixture of isomers) was 130 µM.
On to `NC(=O)c1ccc[n+]([C@@H]2O[C@H](COP(=O)(O)OP(=O)(O)OC[C@H]3O[C@@H](n4cnc5c(N)ncnc54)[C@H](O)[C@@H]3O)[C@@H](O)[C@H]2O)c1` [NAD^+], for which the Km (co-substrate farnesal) worked out at 310 µM.
As for `O=C/C=C/c1ccccc1` [trans-cinnamaldehyde], the Michaelis constant (Km) (1.0 mM NAD+) was 860 µM.
`C/C(C=O)=C\c1ccccc1` [α-methylcinnamaldehyde]: the Km (1.0 mM NAD+) turned out to be 1280 µM.

The record behind these values is publication PMC4999093, “Novel NAD^+-Farnesal Dehydrogenase from Polygonum minus Leaves. Purification and Characterization of Enzyme in Juvenile Hormone III Biosynthetic Pathway in Plant” (PLoS ONE, 2016).
